Assay results: patent US20230406829A1, “Heterocyclic Compound and Preparation Method and Use Thereof” (SYNTRON (JIANGSU) PHARMACEUTICAL TECHNOLOGY CO., LTD., priority 2020, published 2023)

Each molecule was assayed against T1, VISTA protein modified by glycosylation (Homo sapiens, UniProt Q9H7M9) (assay: Binding ability of compounds to VISTA protein (Biacore S200, CM5 chip)). Details: compound diluted in 1.05*PBS-P, fitted.
T1 sequence (Q9H7M9 33-311): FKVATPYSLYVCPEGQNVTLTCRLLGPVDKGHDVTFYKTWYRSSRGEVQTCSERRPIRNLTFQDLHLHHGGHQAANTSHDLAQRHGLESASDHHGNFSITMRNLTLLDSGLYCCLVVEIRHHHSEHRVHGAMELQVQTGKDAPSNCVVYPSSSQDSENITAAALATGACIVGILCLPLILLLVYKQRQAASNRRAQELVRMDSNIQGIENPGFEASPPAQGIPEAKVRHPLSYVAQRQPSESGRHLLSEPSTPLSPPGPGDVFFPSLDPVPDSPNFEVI
From the text: Ability ability of compounds to VISTA protein • (I) Experimental Equipment and Reagents • 1. The machine model used in this experiment is: Biacore S200. • 2. S-series CM5 chip. […] Goods number: BR-1000-50, the purchase place is GE Healthcare. • 4.

| Kd [nM] | SMILES |
| --- | --- |
| 461 | Cc1c(-c2ccccc2)ccc2nc(-c3cccc(CNCCN)c3)[nH]c12 [Compound 7] |
| 338 | CC(=O)NCCNCc1ccc(-c2nc3ccc(-c4ccccc4)c(C)c3[nH]2)cc1 [Compound 10] |
| 153 | CC(=O)NCCNCc1cccc(-c2nc3c(C)c(-c4ccccc4)ccc3[nH]2)c1 [Compound 1] |

These molecules were tested against T2, recombinant human VISTA protein (Homo sapiens, UniProt Q9H7M9) (assay: Inhibition of VISTA interaction: rescue of IFN-γ release in human PBMC (ELISA)). Details: 72 h, read-out: IC50 (VISTA interaction inhibitory activity).
T2 construct: purchased R & D Systems 7126-B7
T2 sequence (Q9H7M9 with tags, fused parts or gaps limits assumed): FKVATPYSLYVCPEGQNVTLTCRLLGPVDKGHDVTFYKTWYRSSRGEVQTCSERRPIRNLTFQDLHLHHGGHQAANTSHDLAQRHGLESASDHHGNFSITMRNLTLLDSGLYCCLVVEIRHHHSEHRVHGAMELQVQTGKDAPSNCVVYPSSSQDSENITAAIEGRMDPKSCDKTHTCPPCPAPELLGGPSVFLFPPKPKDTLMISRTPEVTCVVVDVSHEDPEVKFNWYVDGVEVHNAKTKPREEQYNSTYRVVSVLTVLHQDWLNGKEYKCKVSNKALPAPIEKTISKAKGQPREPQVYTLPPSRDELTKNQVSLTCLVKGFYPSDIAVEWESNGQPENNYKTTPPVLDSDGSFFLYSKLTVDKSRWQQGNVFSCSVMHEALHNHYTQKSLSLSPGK
Format: cell-based
Experimental: • 2. Determination of the inhibition effect of the compounds against VISTA interaction: • (1) Experimental Equipment and Reagents • 1. […] SpectraMax i3X Multifunction microplate reader (Molecular Device) • 3. […] Experimental procedure: • 1.1 Recombinant human VISTA (2.5 μg/ml) and anti-human CD3 antibody (2.5 μg/ml) were added to 96-well plates and stored in 4 C overnight. • 1.2 The next day, the anti-human VISTA antibody was added to the co-incubation for 30 min. Thereafter, cells were washed with 1*PBS and test compounds were added for 30 min. […] At 37 C, 5% CO2Below the conditions, the incubation was continued for 72 h. • 1.3 After separation by centrifugation at 4 C, 200 g*5 min, the supernatant was collected.

| SMILES | IC50 [nM] |
| --- | --- |
| Cc1c(-c2ccccc2)ccc2[nH]c(-c3ccc(CN4CCCC[C@H]4C(=O)O)cc3)nc12 [Compound 13] | 1 to 100 |
| CC(=O)NCCNCc1cccc(-c2nc3cc(C)ccc3[nH]2)c1 [Compound 34] | 1 to 100 |
| Cc1c(-c2ccccc2)ccc2nc(-c3cccc(CNCCN)c3)[nH]c12 [Compound 7] | 1 to 100 |
| CC(=O)NCCNCc1cccc(-c2cc3ccncn3c2)c1 [Compound 45] | 1 to 100 |
| Cc1c(-c2ccccc2)ccc2nc(-c3ccc(CNCCO)cc3)cn12 [Compound 25] | 100 to 1000 |
| Cc1c(-c2ccccc2)ccc2[nH]c(-c3cccc(COCCN)c3)nc12 [Compound 40] | 100 to 1000 |
| CC(=O)NCCNCc1ccc(-c2cn3c(C)c(-c4ccccc4)ccc3n2)cc1 [Compound 26] | 100 to 1000 |
| COc1cc(-c2nc3c(C)c(-c4ccccc4)ccc3[nH]2)ccc1CN1CC[C@@H](O)C1 [Compound 23] | 1 to 100 |
| Cc1c(-c2ccccc2)ccc2[nH]c(-c3ccc(CNCCO)c(OCc4cccnc4)c3)nc12 [Compound 22] | 1 to 100 |
| CC(=O)NCCNCc1cccc(C2=NC3C=CC(c4ccccc4)=C(C)C3O2)c1 (centres unmarked) [Compound 52] | 100 to 1000 |
| COc1cc2cc(-c3cccc(CNCCNC(C)=O)c3)cn2cn1 [Compound 46] | 1 to 100 |
| COc1cc(-c2nc3c(C)c(-c4ccccc4)ccc3[nH]2)ccc1CNC[C@@H]1CCC(=O)N1 [Compound 24] | 1 to 100 |
| Cc1c(-c2ccccc2)ccc2[nH]c(-c3cccc(C(=O)O)c3)nc12 [Compound 31] | 1 to 100 |
| CC(=O)NCCNCc1cccc(-c2nc3cc(CO)ccn3n2)c1 [Compound 49] | 100 to 1000 |
| Cc1c(-c2ccccc2)ccc2[nH]c(-c3cccc(S(=O)(=O)NCCO)c3)nc12 [Compound 41] | 100 to 1000 |
| Cc1c(-c2ccccc2)ccc2nc(-c3cccc(CNCCO)c3)cn12 [Compound 27] | 1 to 100 |
| Cc1c(-c2ccccc2)ccc2[nH]c(-c3ccc(CN[C@H](CO)C(=O)O)cc3)nc12 [Compound 14] | 100 to 1000 |
| CC(=O)NCCNCc1cccc(-c2nc3ccc(Br)c(C)c3[nH]2)c1 [Compound 28] | 1 to 100 |

| SMILES | IC50 [nM] |
| --- | --- |
| CCCOC(=O)c1cccc(-c2nc3c(C)c(-c4ccccc4)ccc3[nH]2)c1 [Compound 42] | 100 to 1000 |
| CC(=O)NCCNCc1cccc(-c2cn3ccc(-c4ccccc4)nc3n2)c1 [Compound 47] | 1 to 100 |
| Cc1c(-c2ccccc2)ccc2[nH]c(-c3ccc(CNC[C@@H](O)CC(=O)O)cc3)nc12 [Compound 15] | 1 to 100 |
| Cc1c(-c2ccccc2)ccc2[nH]c(-c3cccc(OCCNCCO)c3)nc12 [Compound 39] | 100 to 1000 |
| Cc1c(-c2ccccc2)ccc2[nH]c(-c3cccc(OCc4ccccc4)c3)nc12 [Compound 20] | 1 to 100 |
| CC(=O)NCCNCc1cccc(-c2nc3cc(C#N)ccc3[nH]2)c1 [Compound 64] | 1 to 100 |
| CC(=O)NCCNCc1cccc(-c2cc3ccccn3c2)c1 [Compound 43] | 100 to 1000 |
| CC(=O)NCCNCc1cccc(C2=NC3C=CC(c4ccccc4)=C(C)C3S2)c1 (centres unmarked) [Compound 53] | 100 to 1000 |
| Cc1c(-c2ccccc2)ccc2[nH]c(-c3cccc(CNC[C@@H]4CCNC4=O)c3)nc12 [Compound 9] | 1 to 100 |
| CC(=O)NCCNCc1cccc(-c2nc3c4c(ccc3[nH]2)OCCO4)c1 [Compound 61] | 100 to 1000 |
| Cc1c(-c2ccccc2)ccc2nc(-c3ccc(CNCCO)cc3)[nH]c12 [Compound 12] | 100 to 1000 |
| Cc1c(-c2ccccc2)ccc2[nH]c(-c3cccc(OCc4cccnc4)c3)nc12 [Compound 21] | 100 to 1000 |
| Cc1c(-c2ccccc2)ccc2nc(-c3cccc(CNCC(=O)O)c3)[nH]c12 [Compound 2] | 100 to 1000 |
| CC(=O)NCCNCc1cccc(C2=CC3C=CC(c4ccccc4)=NC3O2)c1 (centres unmarked) [Compound 51] | 100 to 1000 |
| Cc1c(-c2ccccc2)ccc2[nH]c(-c3cccc(CN4CC[C@@H](O)C4)c3)nc12 [Compound 8] | 100 to 1000 |
| Cc1c(-c2ccccc2)ccc2[nH]c(-c3ccc(CNCC(=O)O)cc3)nc12 [Compound 11] | 1 to 100 |
| Cc1c(-c2ccccc2)ccc2[nH]c(-c3cccc(CN4CCCC[C@H]4C(=O)O)c3)nc12 [Compound 4] | 1 to 100 |

Continued, values first:

| IC50 [nM] | SMILES |
| --- | --- |
| 1 to 100 | CC(=O)NCCNCc1cccc(-c2nc3cc(-c4ccccc4)ccc3[nH]2)c1 [Compound 32] |
| 100 to 1000 | CC(=O)NCCNCc1cccc(-c2cn3ncc(-c4ccccc4)c(C)c3n2)c1 [Compound 48] |
| 1 to 100 | CC(=O)NCCNCc1cccc(-c2nc3c(O)cccc3[nH]2)c1 [Compound 59] |
| 100 to 1000 | CC(=O)NCCNCc1cccc(-c2nc3c(CO)c(-c4ccccc4)ccc3[nH]2)c1 [Compound 58] |
| 100 to 1000 | CC(=O)NCCNCc1ccc(-c2nc3ccc(-c4ccccc4)c(C)c3[nH]2)cc1 [Compound 10] |
| 1 to 100 | CC(=O)NCCNCc1cccc(-c2nc3c(C#N)c(-c4ccccc4)ccc3[nH]2)c1 [Compound 57] |
| 1 to 100 | Cc1c(-c2ccccc2)ccc2[nH]c(-c3cccc(CNC[C@@H](O)CC(=O)O)c3)nc12 [Compound 6] |
| 100 to 1000 | CC(=O)NCCNCc1cccc(-c2cc3c(C)c(-c4ccccc4)ccn3c2)c1 [Compound 44] |
| 1 to 100 | CC(=O)NCCNCc1cccc(-c2nc3c(Cl)c(-c4ccccc4)ccc3[nH]2)c1 [Compound 17] |
| 1 to 100 | CCc1c(-c2ccccc2)ccc2[nH]c(-c3cccc(CNCCNC(C)=O)c3)nc12 [Compound 56] |
| 1 to 100 | CC(=O)NCCNCc1cccc(-c2nc3c(F)c(-c4ccccc4)ccc3[nH]2)c1 [Compound 36] |
| 100 to 1000 | CC(=O)NCCNCc1cccc(-c2nc3c(O)c(-c4ccccc4)ccc3[nH]2)c1 [Compound 54] |
| 1 to 100 | CC(=O)NCCNCc1cccc(-c2nc3c(Br)c(-c4ccccc4)ccc3[nH]2)c1 [Compound 16] |
| 100 to 1000 | CC(=O)NCCNCc1cccc(-c2nc3cc(-c4ccco4)ccc3[nH]2)c1 [Compound 62] |
| 1 to 100 | COc1c(-c2ccccc2)ccc2[nH]c(-c3cccc(CNCCNC(C)=O)c3)nc12 [Compound 55] |
| 1 to 100 | Cc1c(-c2ccccc2)ccc2[nH]c(-c3cccc(C(=O)NCCO)c3)nc12 [Compound 38] |
| 100 to 1000 | CC(=O)NCCNCc1cccc(-c2nc3cc(OCc4ccccc4)ccc3[nH]2)c1 [Compound 63] |
| 1 to 100 | CC(=O)NCCNCc1cccc(-c2nc3ccccc3[nH]2)c1 [Compound 29] |
| 100 to 1000 | CC(=O)NCCNCc1cccc(-c2nc3c(C)c(-c4ccccc4)ccn3n2)c1 [Compound 50] |
| 1 to 100 | Cc1c(-c2ccccc2)ccc2[nH]c(-c3cccc(CN[C@H](CO)C(=O)O)c3)nc12 [Compound 5] |
| 100 to 1000 | CC(=O)NCCNCc1cccc(-c2nc3c(C(F)(F)F)c(-c4ccccc4)ccc3[nH]2)c1 [Compound 37] |
| 100 to 1000 | COc1ccc2[nH]c(-c3cccc(CNCCNC(C)=O)c3)nc2c1 [Compound 35] |
| 1 to 100 | CC(=O)NCCNCc1cccc(-c2nc3c(O)c(O)ccc3[nH]2)c1 [Compound 60] |
| 1 to 100 | CC(=O)NCCNCc1cccc(-c2nc3c(C)c(-c4ccccc4)ccc3[nH]2)c1 [Compound 1] |
| 1 to 100 | CC(=O)NCCNCc1cccc(-c2nc3c(C)c(-c4ccc5c(c4)OCCO5)ccc3[nH]2)c1 [Compound 18] |
| 1 to 100 | CC(=O)NCCNC(=O)c1cccc(-c2nc3c(C)c(-c4ccccc4)ccc3[nH]2)c1 [Compound 30] |
| 100 to 1000 | COc1cccc(-c2nc3c(C)c(-c4ccccc4)ccc3[nH]2)c1 [Compound 19] |
